Measurements reported in patent US10759751B2, “Substituted spirocyclohexanes as muscarinic M1 receptor and/or M4 receptor agonists” (Heptares Therapeutics Limited, priority 2016, dated 2020).

Legend:
Type in all cases: cell-based
[1] = molecular target: T1, human muscarinic M1 receptor (Homo sapiens, UniProt P11229); experiment: Alphascreen Surefire phospho-ERK1/2 functional assay, M1; details: for EC50 / M1 % Emax cf. ACh: CHO cells stably expressing human M1; for EC50: phospho-ERK1/2, read-out: pEC50 M1 (converted); for Emax: CHO, read-out: M1 % Emax cf. ACh, CHO cells stably expressing human M1; for Emax / M1 % Emax cf. ACh: Emax relative to ACh
T1 sequence (P11229 1-460): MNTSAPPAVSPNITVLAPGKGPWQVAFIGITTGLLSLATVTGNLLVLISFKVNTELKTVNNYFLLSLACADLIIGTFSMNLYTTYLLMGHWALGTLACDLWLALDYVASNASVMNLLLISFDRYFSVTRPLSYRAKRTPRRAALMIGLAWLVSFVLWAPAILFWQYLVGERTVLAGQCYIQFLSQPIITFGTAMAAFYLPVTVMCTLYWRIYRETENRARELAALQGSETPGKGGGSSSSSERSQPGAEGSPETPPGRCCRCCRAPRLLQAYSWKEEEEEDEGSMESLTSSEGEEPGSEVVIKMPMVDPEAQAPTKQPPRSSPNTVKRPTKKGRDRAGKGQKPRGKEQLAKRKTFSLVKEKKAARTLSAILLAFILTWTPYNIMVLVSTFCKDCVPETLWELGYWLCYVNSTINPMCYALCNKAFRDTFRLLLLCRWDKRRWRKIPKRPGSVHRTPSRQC
Experimental: (§1) Functional assays were performed using the Alphascreen Surefire phospho-ERK1/2 assay (Crouch & Osmond, Comb. Chem. High Throughput Screen, 2008). ERK1/2 phosphorylation is a downstream consequence of both Gq/11 and Gi/o protein coupled receptor activation, making it highly suitable for the assessment of M1, M3 (Gq/11 coupled) and M2, M4 receptors (Gi/o coupled), rather than using different assay formats for different receptor subtypes. CHO cells stably expressing the human muscarinic M1, M2, M3 or M4 receptor were plated (25K/well) onto 96-well tissue culture plates in MEM-alpha+10% dialysed FBS. Once adhered, cells were serum-starved overnight. Agonist stimulation was performed by the addition of 5 μL agonist to the cells for 5 min (37° C.). Media was removed and 50 μL of lysis buffer added. After 15 min, a 4 μL sample was transferred to 384-well plate and 7 μL of detection mixture added. Plates were incubated for 2 h with gentle agitation in the dark and then read on a PHERAstar plate reader.
(§2) pEC50 and Emax figures were calculated from the resulting data for each receptor subtype.

[2] = molecular target: T2, human muscarinic M4 receptor (Homo sapiens, UniProt P08173); experiment: Alphascreen Surefire phospho-ERK1/2 functional assay, M4; details: for EC50: read-out: pEC50 M4 (converted); for Emax: CHO, read-out: M4 % Emax cf. ACh, CHO cells stably expressing human M4; for Emax / M4 % Emax cf. ACh: Emax relative to ACh
T2 construct: expressed in transfected cells
T2 sequence (P08173 1-479): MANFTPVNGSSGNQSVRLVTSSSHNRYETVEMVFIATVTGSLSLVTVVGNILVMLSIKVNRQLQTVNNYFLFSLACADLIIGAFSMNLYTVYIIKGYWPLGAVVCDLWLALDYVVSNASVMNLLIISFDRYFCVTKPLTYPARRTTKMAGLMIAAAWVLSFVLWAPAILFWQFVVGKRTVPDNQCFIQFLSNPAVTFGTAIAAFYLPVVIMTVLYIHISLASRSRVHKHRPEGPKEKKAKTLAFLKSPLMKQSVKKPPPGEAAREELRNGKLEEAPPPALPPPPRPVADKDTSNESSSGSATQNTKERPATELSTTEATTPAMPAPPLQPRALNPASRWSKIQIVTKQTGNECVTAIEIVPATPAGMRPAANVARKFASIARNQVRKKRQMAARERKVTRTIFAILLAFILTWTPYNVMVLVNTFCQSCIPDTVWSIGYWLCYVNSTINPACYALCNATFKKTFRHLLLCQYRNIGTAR
Experimental: as §1, §2

[3] = molecular target: T3, human muscarinic M3 receptor (Homo sapiens, UniProt P20309); experiment: Alphascreen Surefire phospho-ERK1/2 functional assay, M3
T3 construct: expressed in transfected cells
Experimental: as §1, §2

[4] = CHO cells stably expressing human M4, phospho-ERK1/2
[5] = CHO cells stably expressing human M4

T3 sequence (P20309 whole entry): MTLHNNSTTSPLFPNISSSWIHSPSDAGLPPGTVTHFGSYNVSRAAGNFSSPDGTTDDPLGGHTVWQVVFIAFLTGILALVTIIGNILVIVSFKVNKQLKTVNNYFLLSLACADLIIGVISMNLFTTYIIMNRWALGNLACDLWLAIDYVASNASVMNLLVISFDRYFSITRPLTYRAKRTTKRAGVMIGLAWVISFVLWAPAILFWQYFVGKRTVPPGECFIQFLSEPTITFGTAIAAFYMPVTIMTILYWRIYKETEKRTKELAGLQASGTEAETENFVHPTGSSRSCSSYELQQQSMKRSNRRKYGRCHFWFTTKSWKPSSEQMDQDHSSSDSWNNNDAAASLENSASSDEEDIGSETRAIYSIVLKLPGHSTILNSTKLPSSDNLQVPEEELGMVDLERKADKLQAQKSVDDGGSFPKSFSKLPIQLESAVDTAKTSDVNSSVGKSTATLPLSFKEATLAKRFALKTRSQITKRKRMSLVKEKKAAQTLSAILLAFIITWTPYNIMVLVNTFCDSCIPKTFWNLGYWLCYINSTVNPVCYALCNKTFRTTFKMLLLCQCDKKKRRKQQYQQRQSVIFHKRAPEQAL

SMILES | EC50 [1] | Emax [1] | EC50 [2, 4] | Emax [2] | M4 % Emax cf. ACh [2, 5] | M3 % Emax cf. ACh ([3]; CHO cells stably expressing human M3, Emax relative to ACh) | M1 % Emax cf. ACh [1] | EC50 ([3]; CHO cells stably expressing human M3, phospho-ERK1/2, read-out: pEC50 M3 (converted)) | Emax ([3]; CHO, read-out: M3 % Emax cf. ACh) | pEC50 M4 [2, 4]
CC(=O)OCC[N+](C)(C)C [ACh] | – | – | – | – | 110% | 115% | – | – | – | –
CCOC(=O)NC1CCN(C2CCC3(CC2)C(=O)Nc2ccccc23)CC1 (single isomer, unassigned) [7-1 isomer 1] | 0.257 µM | – | 0.158 µM | 26% | – | – | 112% | – | – | –
CCOC(=O)N1CCCN(C2CCC3(CC2)C(=O)Nc2ccc(C#N)cc23)CC1 (single isomer, unassigned) [4-14 isomer 1] | 0.977 µM | 76% | > 20 µM | 24% | – | – | – | – | – | –
CCOC(=O)N1CCCN(C2CCC3(CC2)C(=O)Nc2cc(C#N)ccc23)CC1 (single isomer, unassigned) [4-13 isomer 2] | 0.955 µM | 38% | 0.347 µM | 39% | – | – | – | – | – | –
CCOC(=O)N1CCCN(C2CCC3(CC2)C(=O)Nc2ncc(Cl)cc23)CC1 (single isomer, unassigned) [4-16 isomer 1] | 0.891 µM | 60% | > 20 µM | 5% | – | – | – | – | – | –
Cc1noc(C2CC2CNC2CCC3(CC2)C(=O)Nc2ccccc23)n1 (single isomer, unassigned) [23-1 Isomer 1] | 0.347 µM | 113% | 0.251 µM | 78% | – | – | – | > 20 µM | 8% | –
CCOC(=O)N[C@@H]1CCN(C2CCC3(CC2)C(=O)Nc2ccccc23)C1 (single isomer, unassigned) [2-2 isomer 1] | 0.158 µM | 103% | 0.871 µM | 84% | – | – | – | – | – | –
CCOC(=O)N1CCCN(C2CCC3(CC2)C(=O)Nc2cccc(C)c23)CC1 (single isomer, unassigned) [4-8 isomer 1] | 1.1 µM | – | 0.38 µM | – | 52% | – | 67% | – | – | –
CCOC(=O)N[C@H]1CCN(C2CCC3(CC2)C(=O)Nc2cc(F)ccc23)C1 (single isomer, unassigned) [2-7 isomer 1] | 1.78 µM | – | – | – | 1% | – | 35% | – | – | < 4.7
CCOC(=O)N[C@@H]1CCN(C2CCC(C#N)(c3cccc(F)c3)CC2)C1 (single isomer, unassigned) [1-6 Isomer 2] | 0.229 µM | 116% | 1.78 µM | 49% | – | – | – | – | – | –
CCOC(=O)N[C@H]1CCN(C2CCC3(CC2)C(=O)Nc2c(C)cccc23)C1 (single isomer, unassigned) [2-3 isomer 1] | 0.0776 µM | 32% | > 20 µM | 1% | – | – | – | – | – | –
CCOC(=O)N1CCCN(C2CCC3(CC2)CN(S(C)(=O)=O)c2ncccc23)CC1 (single isomer, unassigned) [4-19 isomer 1] | 6.76 µM | 104% | 0.324 µM | 97% | – | – | – | – | – | –
CCOC(=O)N1CCCN(C2CCC3(CC2)C(=O)Nc2ccc(OC)nc23)CC1 (single isomer, unassigned) [4-24 isomer 1] | 0.813 µM | 75% | 0.316 µM | 61% | – | – | – | – | – | –
CCOC(=O)N[C@H]1CCN(C2CCC3(CC2)C(=O)N(C(=O)OCC)c2ccccc23)C1 (single isomer, unassigned) [2-14 isomer 2] | 0.117 µM | 77% | > 20 µM | 56% | – | – | – | – | – | –
CCOC(=O)NC1CCN(C2CCC3(CC2)C(=O)Nc2ccccc23)CC1 (single isomer, unassigned) [7-1 isomer 2] | 0.49 µM | – | 0.282 µM | – | 20% | – | 68% | – | – | –
CCOC(=O)N[C@H]1CCN(C2CCC3(CC2)C(=O)Nc2ccc(F)cc23)C1 (single isomer, unassigned) [2-8 isomer 1] | 0.0933 µM | 59% | > 20 µM | 10% | – | – | – | – | – | –
C/C=C/C(=O)N1CCCN(C2CCC3(CC2)C(=O)Nc2ccccc23)CC1 (single isomer, unassigned) [4-4 isomer 2] | 0.257 µM | 48% | > 20 µM | 12% | – | – | – | – | – | –
CCOC(=O)NCC1CCN(C2CCC3(CC2)C(=O)Nc2ccccc23)CC1 (single isomer, unassigned) [7-2 isomer 2] | 0.389 µM | – | > 20 µM | – | 10% | – | 66% | – | – | –
CCOC(=O)N1CCCN(C2CCC3(CC2)C(=O)Nc2cc(C)ccc23)CC1 (single isomer, unassigned) [4-6 isomer 1] | 0.575 µM | – | 3.24 µM | – | 26% | – | 85% | – | – | –

Continued, values first:

EC50 [1] | Emax [1] | EC50 [2, 4] | Emax [2] | M4 % Emax cf. ACh [2, 5] | M3 % Emax cf. ACh ([3]; CHO cells stably expressing human M3, Emax relative to ACh) | M1 % Emax cf. ACh [1] | EC50 ([3]; CHO cells stably expressing human M3, phospho-ERK1/2, read-out: pEC50 M3 (converted)) | Emax ([3]; CHO, read-out: M3 % Emax cf. ACh) | pEC50 M4 [2, 4] | SMILES
0.269 µM | 39% | > 20 µM | 7% | – | – | – | – | – | – | CCOC(=O)N[C@H]1CCN(C2CCC(C#N)(c3ccc(Cl)cn3)CC2)C1 (single isomer, unassigned) [1-15 Isomer 2]
14.5 µM | – | 1.26 µM | – | 51% | – | 82% | – | – | – | Cc1ccc(C2(C#N)CCC(N3CCC4(CC(c5nc(C)no5)C4)C3)CC2)nc1 (single isomer, unassigned) [21-5 Isomer 2]
0.162 µM | – | 0.0692 µM | – | 75% | – | 80% | – | – | – | Cc1noc(C2CC3(CCN(C4CCC(C#N)(c5ccc(F)cn5)CC4)C3)C2)n1 (single isomer, unassigned) [21-3 Isomer 4]
0.0389 µM | 39% | > 20 µM | 8% | – | – | – | – | – | – | CCOC(=O)N1CC2(CCN(C3CCC4(CC3)C(=O)Nc3ccccc34)C2)C1 (mixture of isomers) [10-1 mixture of isomers]
2.14 µM | 47% | 0.309 µM | 68% | – | – | – | – | – | – | COc1ccc(C2(C#N)CCC(N3CCC4(CC(c5nc(C)no5)C4)C3)CC2)nc1 (single isomer, unassigned) [21-4 Isomer 4]
0.224 µM | – | > 20 µM | – | 14% | – | 51% | – | – | – | COc1ccc2c(c1)C1(CCC(N3CCC4(CC(c5nc(C)no5)C4)C3)CC1)C(=O)N2 (single isomer, unassigned) [26-2 Isomer 3]
0.977 µM | 59% | 0.832 µM | 45% | – | – | – | – | – | – | N#CC1(c2ccc(F)cn2)CCC(N[C@@H]2CC[C@H](c3nc(C(F)(F)F)no3)C2)CC1 (single isomer, unassigned) [28-1 Isomer 2]
0.562 µM | – | > 20 µM | – | 15% | – | 51% | – | – | – | Cc1noc(C2CC3(CCN(C4CCC(C#N)(c5ccc(F)cn5)CC4)C3)C2)n1 (single isomer, unassigned) [21-3 Isomer 3]
